This is an account of results in US7423153B2, “Crystalline forms of gatifloxacin” (Teva Pharmaceutical Industries Ltd., priority 2002, dated 2008).

Data set [1] in a line: Stability of E1 dihydrate against transformation to sesquihydrate on storage (PXRD). Type of data set: physicochemical. As for the experimental part: A suitable method to determine the presence of gatifloxacin sesquihydrate in gatifloxacin form E1 is x-ray powder diffraction. Determination of presence of sesquihydrate in form E1 is feasible in the region 7° to 9° 2θ, where a peak of sesquihydrate appears at about 7.8° 2θ.
Moreover, the dihydrate of the present invention is stable against transformation to the sesquihydrate when exposed at ambient temperature to 60% relative humidity for one week.
The E1 dihydrate of the present invention is stable against transformation to sesquihydrate when stored at 30° C. and 60% relative humidity for 3 months.

A short description of data set [2]: Interconversion of crystalline forms by thermal treatment (XRD before and after heating). Type of data set: physicochemical. As for the experimental part:
(§1) X-ray reflections reported herein were determined by the powder diffraction technique (PXRD). X-ray powder diffraction analysis was performed using a Scintag powder diffractometer with variable goniometer, a Cu source, and a solid state detector. A standard round aluminum sample holder with zero background quartz plate was used. Samples were scanned from 2° to 40° 2θ at 3° per minute. Reflections are reported as peak maxima in the Intensity vs. 2θ plots, and are subject to the normal experimental error (uncertainty) of ±0.2°. Wet samples were promptly analyzed “as is,” i.e., without drying or grinding prior to the analysis.
Approximately 200 mg of several of the novel crystalline forms of the present invention, prepared as described in the foregoing examples, and several of the prior-art crystalline forms were subjected to various thermal treatments. The treatments and the results are described in Table II below
200 mg of gatifloxacin form E1 were heated to 100° C. for 1 hour. The XRD of the resulting sample was that of the omega form.

Data set [3] is described as follows: Stability of E1 in formulations. The data set is classed as physicochemical. As to conditions: in formulations at 30° C. The source says: The pharmaceutical composition can be in the form of a solid oral dosage form (e.g., compressed tablets or capsules), or it can be in the form of a liquid oral dosage form (e.g., a solution or oral suspension).
Data set [4] can be described thus: Exposure to 80% relative humidity for 1 week (XRD, TGA, KF). The data set is classed as physicochemical. The note with it: for crystal structure of resulting sample (XRD): 80% relative humidity for 1 week. The method, then: as §1
Thermogravimetric analysis (TGA) was performed using a Mettler TG50 thermobalance. Samples of 7 to 15 milligrams were analyzed at a heating rate of 10° C. per minute in the temperature range between about 25° C. and about 200° C.
The water content (wt-% water) of crystalline forms of gatifloxacin reported herein was determined by the Karl-Fisher method. Water content of solutions was likewise determined by the Karl-Fisher method.
200 mg of gatifloxacin form J were put in 80% relative humidity for 1 week. The resulting sample was analyzed by XRD, TGA and KF.
200 mg of gatifloxacin omega form were put in 80% relative humidity for 1 week, and then analyzed by XRD and by TGA.

The conditions of data set [5]: as reported in U.S. Pat. No. 5,880,283; cited from earlier work.
The conditions of data set [6]: among forms of U.S. Pat. No. 6,413,969, cited from earlier work.
Setting [7] is: after 80% relative humidity for 1 week.

The structures appear in SMILES notation.

With `COc1c(N2CCNC(C)C2)c(F)cc2c(=O)c(C(=O)O)cn(C3CC3)c12` (stereo not shown) [E1 dihydrate, gatifloxacin], in data set [1] (ambient temperature, 60% relative humidity, one week, PXRD), the “stability against transformation to the sesquihydrate” value was “stable”. In addition, the “stability against transformation to sesquihydrate” value in data set [1] (stored at 30° C. and 60% relative humidity for 3 months) is “stable”.

`COc1c(N2CCNC(C)C2)c(F)cc2c(=O)c(C(=O)O)cn(C3CC3)c12` (stereo not shown) [T1RP, gatifloxacin]: the “form Obtained after heating (XRD)” value in data set [2] (120° C., 1 h) is listed as “Hemihydrate”.

As to `COc1c(N2CCNC(C)C2)c(F)cc2c(=O)c(C(=O)O)cn(C3CC3)c12` (stereo not shown) [form E1, gatifloxacin], the “form Obtained after heating (XRD)” value in data set [2] (100° C. for 1 hour) is given as “omega form”. For the same compound, the “time stable in formulations” value in data set [3] is on record as “at least 3 months”.

`COc1c(N2CCNC(C)C2)c(F)cc2c(=O)c(C(=O)O)cn(C3CC3)c12` (stereo not shown) [form G, gatifloxacin]: the “form Obtained after heating (XRD)” value in data set [2] (120° C., 1 h) is recorded as “Omega^1”.

On to `COc1c(N2CCNC(C)C2)c(F)cc2c(=O)c(C(=O)O)cn(C3CC3)c12` (stereo not shown) [form J, gatifloxacin], for which, in data set [2] (120° C., 1 h), the “form Obtained after heating (XRD)” value is on record as “omega”. For the same compound, the “crystal structure of resulting sample (XRD)” value in data set [4] is “sesquihydrate”. Further, in data set [4] (setting [7]), the “KF water content of resulting sample” value was determined as 6.6% and the “LOD of resulting sample (TGA)” value is reported as 7.8%.

Turning to `COc1c(N2CCNC(C)C2)c(F)cc2c(=O)c(C(=O)O)cn(C3CC3)c12` (stereo not shown) [hemihydrate, gatifloxacin], the “form Obtained after heating (XRD)” value in data set [2] (120° C., 1 h) is listed as “T2RP”. For the same compound, the hygroscopicity entry in data set [5] is “hygroscopic”.

On to `COc1c(N2CCNC(C)C2)c(F)cc2c(=O)c(C(=O)O)cn(C3CC3)c12` (stereo not shown) [omega form, gatifloxacin], for which, in data set [4], the “crystal structure of resulting sample (XRD)” value is recorded as “sesquihydrate”. Moreover, the “LOD of resulting sample (TGA)” value in data set [4] (setting [7]) worked out at 7.7%.

`COc1c(N2CCNC(C)C2)c(F)cc2c(=O)c(C(=O)O)cn(C3CC3)c12` (stereo not shown) [pentahydrate, gatifloxacin]: the thermodynamic stability entry in data set [6] was “most thermodynamically stable form”. Besides, the aqueous solubility entry in data set [6] (room temperature) is reported as “lowest aqueous solubility”.

As to `COc1c(N2CCNC(C)C2)c(F)cc2c(=O)c(C(=O)O)cn(C3CC3)c12` (stereo not shown) [sesquihydrate, gatifloxacin], the “form Obtained after heating (XRD)” value in data set [2] (120° C., 1 h) is “T2RP + omega”. For the same compound, in data set [5], the hygroscopicity result is given as “less hygroscopic” and the stability in manufacturing result is “more stable in manufacturing”.
